Results taken from patent US20190133128A1, “Fungicidal pyridazinones” (FMC Corporation, priority 2017, published 2019).
Marks after values point to notes of the source that are not given here.

Tests used:
Format in all cases: in vivo
Botrytis cinerea = experiment: Test C: preventive spray on tomato seedlings, gray mold, visual disease rating
Description: (§1) General protocol for preparing test solutions for Tests AG: the test compounds were first dissolved in acetone in an amount equal to 3% of the final volume and then suspended at the desired concentration (in ppm) in acetone and purified water (50/50 mix by volume) containing the surfactant PEG400 (polyhydric alcohol esters). The resulting test suspensions were then used in Tests AG. Compounds were sprayed at a concentration of 250 ppm or other indicated rate to the point of run-off on the test plants. The test solution was sprayed to the point of run-off on tomato seedlings. […] A dash (-) indicates no test results.

Phytophthora infestans = experiment: whole plant or invertebrate; settings: tomato seedlings
[1] = test system: Puccinia recondita f. sp. tritici; experiment: Test F: preventive spray on wheat seedlings, wheat leaf rust, visual disease rating
Description: as §1, with “wheat” for “tomato”, “seedlings. The following day the seedlings were inoculated with a spore suspension of Puccinia recondita f. sp. tritici;” for “seedlings.”

[2] = test system: Erysiphe graminis f. sp. tritici; experiment: Test G: preventive spray on wheat seedlings, wheat powdery mildew, visual disease rating
Description: as §1, with “wheat” for “tomato”

Zymoseptoria tritici = experiment: Test E: preventive spray on wheat seedlings, wheat leaf blotch, visual disease rating
Description: as §1, with “wheat” for “tomato”

Phakopsora pachyrhizi = experiment: Test A: preventive spray on soybean seedlings, Asian soybean rust, visual disease rating; settings: 250 ppm, 100 = 100% disease control, 0 = no control
[3] = 250 ppm, 100 = 100% disease control, 0 = no control

Structure (SMILES) | Test C disease control rating (Botrytis cinerea; 200 ppm) | Test D disease control rating (Phytophthora infestans; 200 ppm) | Test F disease control rating ([1]; 200 ppm) | Test G disease control rating ([2]; 200 ppm) | Test A disease control rating (Phakopsora pachyrhizi) | Test C disease control rating (Botrytis cinerea; [3]) | Test D disease control rating (Phytophthora infestans; [3]) | Test E disease control rating (Zymoseptoria tritici; [3]) | Test F disease control rating [1, 3] | Test G disease control rating [2, 3] | other results
Cn1ncc(O)c(C(=O)Nc2ccc3c(c2)OC(F)(F)O3)c1=O [Compound 1] | 0% | 0% | 98% | 40% |  |  |  |  |  |  | 
Cc1nn(C)c(=O)c(C(=O)Nc2ccc(OC(F)(F)F)cc2)c1O [Compound 3] | 0% | 0% | 0% | 37% |  |  |  |  |  |  | Test E disease control rating (Zymoseptoria tritici; 200 ppm): 0%
CCCn1ncc(O)c(C(=O)Nc2ccc(OC(F)(F)F)cc2)c1=O [Compound 4] | 0% | 99% | 95% | 97% |  |  |  |  |  |  | Test E disease control rating (Zymoseptoria tritici; 200 ppm): 0%
CCn1ncc(O)c(C(=O)Nc2ccc(OC(F)(F)F)cc2)c1=O [Compound 5] | 10% | 50% | 84% | 32% |  |  |  |  |  |  | Test E disease control rating (Zymoseptoria tritici; 200 ppm): 0%
COc1cnn(C)c(=O)c1C(=O)Nc1ccc(Cl)cc1 [Compound 8] | 0% | 0% | 0% | 0% |  |  |  |  |  |  | 
Cn1ncc(O)c(C(=O)Nc2ccc(Cl)cc2)c1=O [Compound 9] | 0% | 0% | 99% | 96% |  |  |  |  |  |  | 
Cn1ncc(O)c(C(=O)Nc2ccccc2Cl)c1=O [Compound 10] | 99% | 0% | 97% | 0% |  |  |  |  |  |  | 
Cn1ncc(O)c(C(=O)Nc2cccc(Cl)c2)c1=O [Compound 11] | 48% | 0% | 95% | 31% |  |  |  |  |  |  | 
CCn1ncc(O)c(C(=O)Nc2ccc(Cl)nc2)c1=O [Compound 12] |  | 0% | 91% | 93% |  |  |  |  |  |  | 
O=C(Nc1ccc(Cl)nc1)c1c(O)cnn(-c2ccccc2)c1=O [Compound 14] | 90% | 0% | 98% | 0% |  |  |  |  |  |  | 
Cn1ncc(O)c(C(=O)Nc2cccc(C#N)c2)c1=O [Compound 15] | 16% | 79% | 91% | 0% |  |  |  |  |  |  | 
Cc1cc(Cl)ccc1NC(=O)c1c(O)cnn(C)c1=O [Compound 16] | 0% | 91% | 99% | 45% |  |  |  |  |  |  | 
Cn1ncc(O)c(C(=O)Nc2ccc(Cl)c(Cl)c2)c1=O [Compound 17] | 0% | 57% | 99% | 0% |  |  |  |  |  |  | 
Cn1ncc(O)c(C(=O)Nc2ccc(Cl)c(C(F)(F)F)c2)c1=O [Compound 18] | 0% | 0% | 83% | 46% |  |  |  |  |  |  | 
Cn1ncc(O)c(C(=O)Nc2cccc3cccnc23)c1=O [Compound 19] | 0% | 0% | 96% | 0% |  |  |  |  |  |  | 
Cn1ncc(O)c(C(=O)Nc2c(F)cccc2F)c1=O [Compound 20] | 0% | 0% | 0% | 0% |  |  |  |  |  |  | 
Cn1ncc(O)c(C(=O)NCc2ccc(Cl)cc2)c1=O [Compound 22] |  |  |  |  |  |  |  |  |  |  | Test C disease control rating (Botrytis cinerea; 40 ppm): 0%; Test D disease control rating (Phytophthora infestans; 40 ppm): 0%; Test F disease control rating ([1]; 40 ppm): 41%; Test G disease control rating ([2]; 40 ppm): 0%

Structure (SMILES) | Test C disease control rating (Botrytis cinerea; 200 ppm) | Test D disease control rating (Phytophthora infestans; 200 ppm) | Test F disease control rating ([1]; 200 ppm) | Test G disease control rating ([2]; 200 ppm) | Test A disease control rating (Phakopsora pachyrhizi) | Test C disease control rating (Botrytis cinerea; [3]) | Test D disease control rating (Phytophthora infestans; [3]) | Test E disease control rating (Zymoseptoria tritici; [3]) | Test F disease control rating [1, 3] | Test G disease control rating [2, 3] | other results
CN(C(=O)c1c(O)cnn(C)c1=O)c1ccc(Cl)cc1 [Compound 23] |  |  |  |  |  |  |  |  |  |  | Test C disease control rating (Botrytis cinerea; 40 ppm): 0%; Test D disease control rating (Phytophthora infestans; 40 ppm): 0%; Test F disease control rating ([1]; 40 ppm): 0%; Test G disease control rating ([2]; 40 ppm): 0%
Cn1ncc(O)c(C(=O)Nc2ccc(Cl)cc2C#N)c1=O [Compound 24] | 99% | 0% | 91% | 0% |  |  |  |  |  |  | 
Cn1ncc(O)c(C(=O)Nc2cccc(F)c2)c1=O [Compound 25] | 0% | 0* % | 89% | 0% |  |  |  |  |  |  | 
Cn1ncc(O)c(C(=O)Nc2ccccc2-c2cc(F)c(F)c(F)c2)c1=O [Compound 27] |  |  |  |  | 0% | 0% | 0% | 0% | 98% | 0% | 
Cn1ncc(O)c(C(=O)Nc2ccccc2-c2ccc(Cl)cc2)c1=O [Compound 28] |  |  |  |  | 0% | 0% | 0% | 0% | 97% | 27% | 
COc1ccc(NC(=O)c2c(Cl)cnn(C)c2=O)cc1 [Compound 30] |  |  |  |  | 60% | 0% | 0% | 0% | 96% | 0% | 
Cc1ccc(NC(=O)c2c(Cl)cnn(C)c2=O)cc1 [Compound 31] |  |  |  |  | 65% | 92% | 0% | 0% | 95% | 0% | 
Cn1ncc(Cl)c(C(=O)Nc2ccccc2-c2ccc(F)c(F)c2F)c1=O [Compound 32] |  |  |  |  | 94% | 0% | 0% | 0% | 96% | 0% | 
Cn1ncc(Cl)c(C(=O)Nc2ccccc2-c2ccc(Cl)cc2)c1=O [Compound 33] |  |  |  |  | 48% | 0% | 0% | 0% | 97% | 0% | 
COc1ccccc1NC(=O)c1c(O)cnn(C)c1=O [Compound 34] |  |  |  |  | 0% | 0% | 0% | 0% | 80% | 0% | 
Cn1ncc(O)c(C(=O)Nc2ccccc2Br)c1=O [Compound 35] |  |  |  |  | 0% | 0% | 71% | 0% | 98% | 0% | 
Cn1ncc(O)c(C(=O)Nc2ccccc2F)c1=O [Compound 36] |  |  |  |  | 31% | 0% | 94% | 0% | 98% | 78% | 
Cn1ncc(O)c(C(=O)Nc2ccc(OC(F)(F)F)cc2F)c1=O [Compound 48] |  |  |  |  |  | 62% | 97% | 96% | 99% | 97% | 
Cn1ncc(OS(C)(=O)=O)c(C(=O)Nc2ccc(C(F)(F)F)nc2)c1=O [Compound 94] |  |  |  |  | 77% | 0% | 0% |  | 99% | 52% | 
Cn1ncc(OS(C)(=O)=O)c(C(=O)Nc2ncc(Cl)cn2)c1=O [Compound 95] |  |  |  |  | 73% | 0% | 0% |  | 68% | 0% | 
Cn1ncc(OS(=O)(=O)c2ccccc2)c(C(=O)Nc2ccc(OC(F)(F)F)cc2)c1=O [Compound 107] |  |  |  |  |  | 0% | 96% | 71% | 100% | 98% | 
